Data as given in publication PMC4694766, “Modeling-Enabled Characterization of Novel NLRX1 Ligands” (PLoS ONE, 2015).
“Also recorded” adds a separate entry of the source. Where two headings read alike, the source gives them in different places. Each block holds one molecule with its values, some of them ahead of it.

Assays:
[1] = target: T1, cNLRX1 (wild type) (Homo sapiens, UniProt Q86UT6); test: SPR (Biacore T200) direct binding to immobilized cNLRX1 wild type; conditions: for kon: NLRX1: WT, read-out: ka
T1 construct: cNLRX1 (AA 667–970) was cloned into pPinkHC-Alpha-SDK; polyhistidine (6x); made in house; host or cells: Pichia pastoris (Strain 4: ade2, prb1, pep4)
Procedure: White colonies on drop adenine media were screened for protein expression via small-scale induction and both pellets and supernatants were screened for expression via western blot using an anti-polyhistidine (6x) antibody (Immunology Consultants Laboratory, Inc). […] Every 24 hours post induction cells were fed 10 mL of methanol and 10% filter sterilized sorbitol for 4 days post induction. Cells were subsequently harvested at 10,000 x g for 15 min and were either used immediately or stored at -80°C.
Cells were re-suspended in 40 mL of ice-cold lysis buffer (50mM Sodium Phosphate, 200mM sodium chloride, 25mM Sucrose, 0.1% T-100, pH = 7.2) and sonicated 8 times at max amplitude using a 15 sec ON 45 sec OFF cycle. Lysed cells were centrifuged at 15,000 x g for 30 min at 4°C. Supernatant were loaded onto a 150 mL Super-loop and purified using a programmed immobilized metal affinity chromatography gradient protocol on the AKTA prime plus. Bound protein was washed with 40 column volumes of wash buffer (50 mM sodium phosphate buffer, 300 mM sodium chloride, 20 mM imidazole, pH 8.0) and eluted in 1 mL fractions over a 0.02-1M imidazole 40 mL gradient. Purity was assessed via SDS-PAGE. Proteins were further purified via gel filtration chromoatograhy using a Superdex75 column (16/600) in 50 mM sodium phosphate, 300 mM sodium chloride pH 8.0. […] Protein was dialyzed (1:1000) twice at 4°C for a minimum of 8 hours in appropriate buffers for downstream assays.
(§1) Direct binding experiments were performed via the Biacore T200 Surface Plasmon Resonance (SPR) Technology (Georgetown University). […] The cNLRX1 was immobilized to a CM4 or CM5 chip by amine coupling method. Two adjacent surfaces were activated by injection of a 1:1 (v:v) mixture of 0.1 M N-Hydroxysuccinimide (NHS) and 0.4 M 1-Ethyl-3-(3-dimethyl-aminopropyl)-carbodiimide hydrochloride (EDC) for 720 seconds. Experimental flow cell was then injected with the cNLRX1 that was diluted in 10 mM pH 4.0 sodium acetate buffer to a final concentration of 25 μg/mL. Both experimental and the reference flow cells were inactivated by injection of 1M Ethanolamine-HCl pH 8.0 for 720 seconds.
(§2) Negative control compound, 1,14-bis (3,b-dimethoxypheny1)-tetradecane, was tested at a concentration of 20 μM. Injection time was 60 seconds and dissociation time was 300 seconds. […] Data was analyzed by using the BiaEvaluation software (GE Healthcare) with 1:1 binding model for steady state affinity. Raw data was exported and graphed using Prizm for Mac v5.0d and excel.

[2] = tested on: NF-κB p65 activity in BMDMs from wild type and Nlrx1-/- mice; test: NF-κB p65 ELISA (TransAM) on LPS-stimulated bone marrow derived macrophages; assay type: cell-based, mouse; conditions: LPS 1μg/ml 12 hours, then 40 μM compound 12 hours
Procedure: Bone marrow derived macrophages (BMDM)s were isolated from hind legs of wild type and Nlrx1-/- mice in sterile conditions and cultured for 7 days as described. […] Nuclear extraction was performed on colon homogenates using the Active Motif Nuclear Extraction Kit (Carlsbad, CA) as previously described. ELISA was performed on nuclear fractions using the Active Motif TransAM® NF-κB p65 kit according to the manufacturer’s instructions.
The NF-κB activation by NLRX1 ligands was detected and quantified by using the Trans-AM™ NF-κB p65 ELISA-based assay (Active Motif, Carlsbad, CA) as described in the manual of the Active Motif TransAM® NF-κB p65 kit.
Fig 4 Effect of NLRX1 disruption on NF-κB activation in Bone marrow derived macrophage (BMDM). […] Nuclear extraction was performed on colon homogenates using the Active Motif Nuclear Extraction Kit (Carlsbad, CA). ELISA was performed on both cytoplasmic and nuclear fractions using the Active Motif TransAM® NF-κB p65 kit according to the manufacturer’s instructions. Letter superscripts indicate significant (P-value < 0.05) differences by ANOVA.

[3] = target: T2, cNLRX1 ASP677, PHE680, PHE681, and GLU684 to alanine mutant (Mutant) (Homo sapiens, UniProt Q86UT6, D677A/E684A/F680A/F681A); test: SPR (Biacore T200) direct binding to immobilized Mutant cNLRX1
T2 construct: cNLRX1 (AA 667–970) was cloned into pPinkHC-Alpha-SDK; polyhistidine (6x); made in house
T2 sequence (Q86UT6 667-970 D677A/F680A/F681A/E684A limits assumed): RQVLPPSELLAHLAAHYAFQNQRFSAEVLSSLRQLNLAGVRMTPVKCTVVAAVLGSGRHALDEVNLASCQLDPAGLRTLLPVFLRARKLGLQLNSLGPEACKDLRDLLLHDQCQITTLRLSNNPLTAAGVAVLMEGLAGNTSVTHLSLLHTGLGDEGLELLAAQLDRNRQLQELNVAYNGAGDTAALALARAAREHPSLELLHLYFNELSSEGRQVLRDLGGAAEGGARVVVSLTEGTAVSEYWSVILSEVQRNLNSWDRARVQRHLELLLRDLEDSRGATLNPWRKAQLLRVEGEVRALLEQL
Procedure: as §1, §2

[4] = tested on: DSS-induced colitis and spontaneous pan-enteritis in IL-10−/− mice; conditions: cited from earlier work
[5] = tested on: DSS-induced colitis; conditions: for disease activity: 8% DSS six days, PUA 40 mg/kg oral gavage daily vs PBS
Procedure: C57BL/6J wild-type (WT) and Nlrx1-/- mice (n = 10) ranging from 8–10 weeks of age were administered 8% DSS (average […] molecular weight) in drinking water for six days. Control mice received tap water. […] On day 6, mice were euthanized via carbon dioxide narcosis with secondary cervical dislocation. All mice were weighed and scored daily. Clinical scores were based on physical appearance (0–3), fecal consistency (0–3), presence of rectal bleeding (0–4), and weight loss (0–3) and assigned a compounded score for overall disease activity (0–4).
Total RNA was isolated from whole mouse colon using a Qiagen (Germantown, MD) RNA isolation mini kit. Complementary DNA (cDNA) was generated from each sample (1 μg RNA) using the iScript cDNA synthesis kit (Bio-Rad). Standards were produced through a polymerase chain reaction on the cDNA with Taq DNA polymerase from Invitrogen. The amplicon was purified using the Mini-Elute PCR purification kit from Qiagen. Expression levels were obtained through quantitative real-time PCR on a Bio-Rad (Hercules, CA) CFX 96 Thermal Cycler using the Bio-Rad SYBR Green Supermix. For analysis, the starting amount of anti-microbial peptide cDNA was compared to that of beta-actin, as a control. cDNA concentrations for genes of interest were examined by RT-PCR as described.
Colonic samples were fixed in 10% buffered formalin, embedded in paraffin, processed routinely and sectioned at 5 μm. Sections were stained with hematoxylin and eosin (H&E) and then examined and graded using an Olympus microscope (Olympus America, Center Valley, PA) and ImagePro software. Sections were graded for leukocytic infiltration (0–4), epithelial erosion (0–4) and mucosal thickening (0–4).

[6] = tested on: PPARγ; conditions: cited from earlier work
[7] = target: the molecule itself; test: SEC; Superdex 75 column (16/600) at 1 ml/min in 50 mM sodium phosphate, 300 mM sodium chloride, pH 8; blue dextran run alongside
[8] = Nlrx1-/- mice, day six of DSS, PUA 40 mg/kg oral gavage
[9] = WT mice, day six of DSS, PUA 40 mg/kg oral gavage

Molecule: COc1cc(CCCCCCCCCCCCCCc2cc(OC)cc(OC)c2)cc(OC)c1 [1,14-bis (3,b-dimethoxypheny1)-tetradecane, reference compound]
binding to cNLRX1 by SPR (in words) ([1]; ssRNA 0.5-8 μM, negative control injected at 20 μM): failed to bind cNLRX1; also recorded: No binding was observed

B1: C-terminal fragment of the human NLRX1 (cNLRX1), AA 667-970 (domain or fragment, UniProt Q86UT6 667-970, looked up)
chain: RQVLPPSELLDHLFFHYEFQNQRFSAEVLSSLRQLNLAGVRMTPVKCTVVAAVLGSGRHALDEVNLASCQLDPAGLRTLLPVFLRARKLGLQLNSLGPEACKDLRDLLLHDQCQITTLRLSNNPLTAAGVAVLMEGLAGNTSVTHLSLLHTGLGDEGLELLAAQLDRNRQLQELNVAYNGAGDTAALALARAAREHPSLELLHLYFNELSSEGRQVLRDLGGAAEGGARVVVSLTEGTAVSEYWSVILSEVQRNLNSWDRARVQRHLELLLRDLEDSRGATLNPWRKAQLLRVEGEVRALLEQL
notes: NLRX1, human, C-terminal fragment, AA 667-970; Cloned into pPinkHC-Alpha-SDK; The vector may add a secretion signal, but the protein was purified from lysed cells; also called cNLRX1 wildtype; cNLRX1 (WT)
binding result [7]: binds

The next lines start with results.

Kd ([1]; SPR, cNLRX1 WT, read-out: equilibrium constant of dissociation (KD)): 2.3 µM
Molecule: CC/C=C\C/C=C\C/C=C\C/C=C\C/C=C\C/C=C\CCC(=O)O [DHA, docosahexaenoic acid]
NF-κB activity ([2]; Nlrx1-/- BMDMs): abrogates the effect | NF-κB activity ([2]; wild type BMDMs): suppressed the NF-κB activity

Kd [1]: 13.3 µM | kon ([1]; SPR): 3420 M⁻¹ s⁻¹ | equilibrium constant of dissociation (KD) [3]: 170 µM
Molecule: CCCCC=CC=CC=CCCCCCCCC(=O)O [ESA, eleostearic acid]
effect on gut inflammation [4]: able to regulate gut inflammation

Kd [1]: 14.6 µM | kon ([1]; SPR): 2320 M⁻¹ s⁻¹ | equilibrium constant of dissociation (KD) [3]: 338 µM
Molecule: CCCC\C=C/C=C/C=C\CCCCCCCC(=O)O [PUA, punicic acid]
NF-κB activity ([2]; Nlrx1-/- BMDMs): abrogates the effect | NF-κB activity ([2]; wild type BMDMs): suppressed the NF-κB activity | disease activity ([5]; Nlrx1-/- mice): no observable inhibition of colitis | TNFα mRNA expression in whole colon [5, 8]: overall unaffected | colon histopathology (inflammatory amelioration) [5, 8]: failed to show any inflammatory amelioration | disease activity ([5]; WT mice): significant symptom regulation | TNFα mRNA expression in whole colon [5, 9]: significantly lower | colon histopathology scores (epithelial erosion, leukocytic infiltration, mucosal thickening) [5, 9]: significantly lower scores | binding and activation of PPARγ [6]: robustly bind and activate PPARγ | effect on colitis ([4]; DSS-induced colitis and spontaneous pan-enteritis in IL-10−/− mice): ameliorate DSS-induced colitis and spontaneous pan-enteritis
